From US8697385B1, “Protein controlling synthesis of collagen and associated methods” (Florida State University Research Foundation, Inc., priority 2009, dated 2014)

How the values were obtained:
[1] = system: nonmuscle myosin filaments; test: Immunostaining of nonmuscle myosin IIB filaments in lung fibroblasts; format: cell-based; conditions: human lung fibroblasts; ML-7 40 μM 16 h; untreated cells show prominent filaments
Description: (§1) ML-7, blebbistatin, cytochalasin B, puromycin, and cycloheximide were purchased from Sigma. ML-7 was used at 40 μM, blebbistatin was used at 100 μM, and cytochalasin B was used at 20 μM. Cells were incubated with the drugs for 16 h before analysis. Puromycin (200 μg/ml) and cycloheximide (100 μg/ml) were added to the cells for 2 h. Human lung fibroblasts have been described previously.16 Scleroderma fibroblasts were purchased from the European Collection of Cell Cultures (cell line BM0070) and derived from the skin of a scleroderma patient. MEFs were derived from knock-in mice in which the 5′SL of the collagen α1(I) gene has been mutated (Parsons et al., submitted). Several independent cell isolates were used throughout the study. All cells were cultured in Dulbecco's modified Eagle's medium supplemented with 10% fetal bovine serum for up to 10 passages. […] [^32P]dCTP was included in the PCR step to label the products, which were resolved on sequencing gels, as described previously.^8,31,49,50 When RNA from polysomal fractions was analyzed, an equal aliquot of each fraction was used. […]
(§2) Protein concentration was estimated by the Bradford assay, with bovine serum albumin as standard.^51 Western blot analyses of cellular proteins were performed using 50 μg of protein. […] The medium was collected, and an aliquot was analyzed directly by Western blot analysis. […]

[2] = system: LARP6 and nonmuscle myosin; test: Coimmunoprecipitation of nonmuscle myosin IIB with HA-tagged LARP6; format: cell-based, human; conditions: lung fibroblasts; ML-7-treated vs control cells
Description: as §1, with “passages. Plasmid constructs and adenovirus preparation.” for “passages.”
One of the roles of nonmuscle myosin filaments may be to present collagen mRNAs to ribosomes. Therefore, we assessed if the association of collagen mRNAs with nonmuscle myosin is dependent on intact polysomes. […]

human lung fibroblasts = test: Western blot analysis of cellular and medium collagen polypeptides, lung fibroblasts; format: cell-based; conditions: 16 h, ML-7 40 μM, blebbistatin 100 μM, vs control cells
Description: (§3) ML-7, blebbistatin, cytochalasin B, puromycin, and cycloheximide were purchased from Sigma. ML-7 was used at 40 μM, blebbistatin was used at 100 μM, and cytochalasin B was used at 20 μM. Cells were incubated with the drugs for 16 h before analysis. Puromycin (200 μg/ml) and cycloheximide (100 μg/ml) were added to the cells for 2 h. Human lung fibroblasts have been described previously.16 Scleroderma fibroblasts were purchased from the European Collection of Cell Cultures (cell line BM0070) and derived from the skin of a scleroderma patient. MEFs were derived from knock-in mice in which the 5′SL of the collagen α1(I) gene has been mutated (Parsons et al., submitted). Several independent cell isolates were used throughout the study. All cells were cultured in Dulbecco's modified Eagle's medium supplemented with 10% fetal bovine serum for up to 10 passages. Plasmid constructs and adenovirus preparation. The HA-tagged LARP6 clone and the deletion mutants have been described previously.^16 Adenoviruses were constructed by recloning of the constructs into the pAdCMVTRACK vector, followed by recombination with the pAdEasy vector and amplification, as described previously.^48 Expression of each construct was verified by Western blot analysis. The viruses made express both the full-size test protein and the green fluorescent protein (GFP), which is encoded by an independent transcription unit.^48 Expression of GFP served as control for viral transduction. RT-PCR analysis Total cellular RNA was isolated using an RNA isolation kit (Sigma). RT-PCRs were performed with 100 ng of total RNA or using rTth reverse transcriptase (Boca Scientific, Boca Raton, Fla.). [^32P]dCTP was included in the PCR step to label the products, which were resolved on sequencing gels, as described previously.^8,31,49,50 When RNA from polysomal fractions was analyzed, an equal aliquot of each fraction was used. The number of cycles was adjusted to within the linear range of the reaction. The primers used for RT-PCR were as follows: h-collagen α1(I), 5′ primer […] (SEQ ID NO:3) and 3′ primer […] (SEQ ID NO:4); h-collagen α2(I), 5′ primer […] (SEQ ID NO:5) and 3′ primer […] (SEQ ID NO:6).
(§4) Protein concentration was estimated by the Bradford assay, with bovine serum albumin as standard.^51 Western blot analyses of cellular proteins were performed using 50 μg of protein. For Western blot analysis of secreted proteins, equal numbers of cells were seeded, serum-free medium was added to the cells, and incubation continued for 3 h. The medium was collected, and an aliquot was analyzed directly by Western blot analysis. Use of serum free medium in collecting secreted proteins is essential because fetal calf serum contains substantial amounts of collagen and fibronectin.^15,31 For immunostaining, cells were seeded onto glass coverslips. After treatment, the cells were fixed with 4% paraformaldehyde for 30 min at room temperature and permeabilized with 0.5% Triton X-100 in phosphatebuffered saline (PBS) for 10 min. After the cells had been blocked with 10% goat serum/5% bovine serum albumin in PBS for 1 h at room temperature, they were incubated with primary antibody overnight at 4° C., washed, and visualized with AlexaFluor594-conjugated or Cy-2-conjugated secondary antibodies. The cells were mounted using VECTASHIELD mounting medium containing […], 6-diamidino-2-phenylindole (Vector Laboratories), and images were taken by a Leica TCS SP2 AOBS laser confocal microscope equipped with a Chameleon Ti: Sapphire multiphoton laser. Optical sections were processed with LCSLite software.
(§5) To assess the role of nonmuscle myosin in collagen synthesis, we disrupted nonmuscle myosin filaments in two different cell types: primary human lung fibroblasts and primary scleroderma skin fibroblasts. These cells are responsible for lung and skin fibrosis. […]

[3] = system: nonmuscle myosin filaments; test: Immunostaining of nonmuscle myosin IIB filaments in scleroderma fibroblasts; format: cell-based, human; conditions: ML-7, compared with effect in lung fibroblasts
Description: as §1, §2

[4] = system: primary scleroderma skin fibroblasts; test: Western blot analysis of cellular and medium collagen polypeptides, scleroderma fibroblasts; format: cell-based, human; conditions: 16 h, ML-7 40 μM, blebbistatin 100 μM
Description: as §3, §4, §5

SMILES: O=S(=O)(c1cccc2c(I)cccc12)N1CCCNCC1 [ML-7]
- myosin IIB immunostaining (filaments) [1]: myosin staining is confined around the nucleus
- myosin IIB pulled down with LARP6 [2]: significantly less
- secretion of collagen α1(I) polypeptide into the medium (human lung fibroblasts; cytochalasin B 20 μM): found in similar amounts
- secretion of collagen α2(I) polypeptide into the medium (human lung fibroblasts; cytochalasin B 20 μM): secreted only in trace amounts
- secretion/expression of fibronectin (human lung fibroblasts; cytochalasin B 20 μM): not affected
- intracellular level of collagen α1(I) and α2(I) polypeptides (human lung fibroblasts): not significantly affected
- myosin IIB immunostaining (filaments) [3]: same effect
- intracellular level of collagen α1(I) polypeptide [4]: not changed
- intracellular level of collagen α2(I) polypeptide [4]: reduced
- secretion of collagen α1(I) polypeptide into the medium ([4]; cytochalasin B 20 μM): barely detectable
- secretion of collagen α2(I) polypeptide into the medium ([4]; cytochalasin B 20 μM): absent
- secretion/expression of fibronectin ([4]; cytochalasin B 20 μM): not affected
